In test [1] the target is rhTDO (recombinant human TDO) (Homo sapiens, UniProt P48775). The experiment in a line: Enzyme assay using rhTDO (rate of kynurenine production). Format: biochemical. The settings on record: 2 h; final concentration of the compound 10 μM; rate relative to reaction without compound; read-out: rhTDO-mediated kynurenine production. Summed up: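 Kynurenine output, as percent of untreated control after background subtraction, read at 490 nm with p-dimethylbenzaldehyde following TCA quench and 15 min heating at 50 °C. Reaction: rhTDO with compound, 10 min preincubation then 120 min at 37 °C, started by 20 mM tryptophan stock, in phosphate/ascorbate/methylene blue/catalase.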

In test [2] the target is rhIDO (recombinant human IDO) (Homo sapiens, UniProt P14902). The experiment in a line: Enzyme assay using rhIDO (rate of kynurenine production). The settings on record: 2 h; final concentration of the compound 10 μM; rate relative to reaction without compound; read-out: rhIDO-mediated kynurenine production. The test is classed as biochemical. Summed up:
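rhIDO preincubated with compound 10 min at 37 °C in phosphate buffer with ascorbate, methylene blue and catalase; started with 2 mM tryptophan solution (stock) and run 120 min at 37 °C. Stopped with TCA and heated to convert N-formylkynurenine; kynurenine read at 490 nm after p-dimethylbenzaldehyde, background-subtracted, as % of no-compound control.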

In another test the target is T1, TDO in A172 cells (Homo sapiens, UniProt P48775).
T1 construct: endogenous in cells; host or cells: A172 cells
The experiment in a line: TDO cell-based assay, kynurenine production in A172 cells. The settings on record: A 172; final concentration of the compound 10 μM; rate relative to culture without compound. The method in brief:
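A172 cells were preincubated with compound for 1 h, then given L-tryptophan (final 524 μM) for 24 h at 37 °C. Kynurenine was read at 460 nm after p-dimethylbenzaldehyde/TCA reagent, background-subtracted, and expressed as % of no-compound production.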

The target of the next test is T2, IDO in A431 cells (Homo sapiens, UniProt P14902).
T2 construct: endogenous in cells; host or cells: A431 cells, IFN-γ stimulated
The experiment in a line: IDO cell-based assay, kynurenine production in IFN-γ stimulated A431 cells. The settings on record: A-431, 24 h; final concentration of the compound 10 μM; rate relative to culture without compound. Summed up: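 A431 cells were cultured 24 h, then preincubated 1 h with compound in medium containing 178 μM L-tryptophan, and stimulated with IFN-γ (diluted to 100 ng/mL before addition) for 24 h. Kynurenine was measured by p-dimethylbenzaldehyde absorbance at 460 nm, background-subtracted, and expressed as % production versus no-compound control.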

Structures are written as SMILES. Structures can show the parent of a compound that is named as a salt.

We go through 21 molecules from patent US12209079B2 (GENERAL INCORPORATED ASSOCIATION PHARMA VALLEY PROJECT …, priority 2017, dated 2025).

Sequence of rhTDO (recombinant human TDO) (P48775 whole entry): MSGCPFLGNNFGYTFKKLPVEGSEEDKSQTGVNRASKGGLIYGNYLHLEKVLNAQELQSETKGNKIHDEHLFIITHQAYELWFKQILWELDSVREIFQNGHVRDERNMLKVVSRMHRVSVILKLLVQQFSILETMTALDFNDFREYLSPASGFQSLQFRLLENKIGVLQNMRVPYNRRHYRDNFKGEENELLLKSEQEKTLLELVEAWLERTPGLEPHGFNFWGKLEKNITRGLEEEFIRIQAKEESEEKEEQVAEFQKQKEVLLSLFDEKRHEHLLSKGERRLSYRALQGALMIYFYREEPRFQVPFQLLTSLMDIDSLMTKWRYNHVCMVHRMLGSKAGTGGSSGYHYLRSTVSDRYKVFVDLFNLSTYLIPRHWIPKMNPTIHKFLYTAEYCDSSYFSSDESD
T1 sequence (P48775 whole entry): as above
Sequence of rhIDO (recombinant human IDO) (P14902 whole entry): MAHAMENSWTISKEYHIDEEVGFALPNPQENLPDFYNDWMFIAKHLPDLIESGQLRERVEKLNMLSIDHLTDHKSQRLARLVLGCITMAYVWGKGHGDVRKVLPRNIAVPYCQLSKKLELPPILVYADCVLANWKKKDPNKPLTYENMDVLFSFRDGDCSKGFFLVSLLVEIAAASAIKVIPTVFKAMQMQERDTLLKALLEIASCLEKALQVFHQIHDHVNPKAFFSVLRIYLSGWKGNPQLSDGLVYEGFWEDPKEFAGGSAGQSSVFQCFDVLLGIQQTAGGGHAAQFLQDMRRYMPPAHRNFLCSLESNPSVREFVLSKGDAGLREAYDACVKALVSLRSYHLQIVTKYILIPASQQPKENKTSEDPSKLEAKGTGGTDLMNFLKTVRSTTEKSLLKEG
T2 sequence (P14902 whole entry): as above

Turning to `N=C(N)SCc1ccc(C(F)(F)F)cc1CSC(=N)N` [Compound 46, dihydrobromide], the remaining activity at 10 µM is 14% in test [1], 3% in test [2], 24% on TDO in A172 cells and 10% on IDO in A431 cells.

Regarding `Cc1ccc(CNC(=O)c2ccc(Br)cc2CSC(=N)N)cc1` [Compound 90, 5-Bromo-2-((4-methylbenzyl)carbamoyl)benzyl carbamimidothioate hydrobromide], the remaining activity at 10 µM in test [1] was determined as 45%; in test [2] it was 90%; on TDO in A172 cells, 51%; at IDO in A431 cells, 96%.

Consider `N=C(N)SCc1cccnc1CSC(=N)N` [Compound 34, Pyridine-2,3-diylbis(methylene) dicarbamimidothioate dihydrobromide], for which the remaining activity at 10 µM in test [1] was 27%; in test [2], 25%; at TDO in A172 cells, 47%; at IDO in A431 cells, 29%.

`Clc1ccc(CN2CN=C(SCc3ccc(Br)cc3CSC3=NCN(Cc4ccc(Cl)c(Cl)c4)CN3)NC2)cc1Cl` [Compound 54, 6,6′-(((4-Bromo-1,2-phenylene)bis(methylene))bis(sulfanediyl))bis(3-(3,4-dichlorobenzyl)-1,2,3,4-tetrahydro-1,3,5-triazine)]: the remaining activity at 10 µM in test [1] was determined as 14%; in test [2], 13%; on TDO in A172 cells, 6%; at IDO in A431 cells, 4%.

Take `Brc1ccc(CCN2CN=C(SCc3ccccc3CSC3=NCN(CCc4ccc(Br)cc4)CN3)NC2)cc1` [Compound 20, 1,2-bis(((5-(4-bromophenethyl)-1,4,5,6-tetrahydro-1,3,5-triazin-2-yl)thio)methyl)benzene]: the remaining activity at 10 µM stood at 44% in test [1], 27% in test [2], 0% on TDO in A172 cells and 6% at IDO in A431 cells.

As to `N#Cc1ccc(CNC(=O)c2ncccc2CSC(=N)N)cc1` [Compound 99, (2-((4-Cyanobenzyl)carbamoyl)pyridin-3-yl)methyl carbamimidothioate hydrobromide], the remaining activity at 10 µM in test [1] stood at 75%; in test [2] it was 96%; at TDO in A172 cells it was 106%; at IDO in A431 cells, 102%.

Consider `Cc1ccc(CSC(=N)N)c(CSC(=N)N)c1` [Compound 12, (4-methyl-1,2-phenylene)bis(methylene) dicarbamimidothioate dihydrobromide], for which the remaining activity at 10 µM in test [1] was determined as 10%; in test [2] it was 20%; at TDO in A172 cells, 0%; on IDO in A431 cells, 13%.

In the case of `N=C(N)[Se]Cc1cc(Br)ccc1C(=O)NCC1CC1` [Compound 107, 5-Bromo-2-((cyclopropylmethyl)carbamoyl)benzyl carbamimidoselenoate hydrobromide], the remaining activity at 10 µM in test [1] was determined as 103%; in test [2] it was 97%; at TDO in A172 cells, 12%; at IDO in A431 cells, 44%.

On to `CNC(=O)c1ccccc1CSC(=N)N` [Compound 92, 2-(Methylcarbamoyl)benzyl carbamimidothioate hydrobromide], for which the remaining activity at 10 µM worked out at 68% in test [1], 90% in test [2], 81% at TDO in A172 cells and 112% at IDO in A431 cells.

Take `N/C(=N\c1cccc(Br)c1)SCc1cc(Cl)c(Cl)cc1CS/C(N)=N/c1cccc(Br)c1` [Compound 136, (4,5-Dichloro-1,2-phenylene)bis(methylene) (E,E)-bis(N′-(3-bromophenyl)carbamimidothioate) dihydrobromide]: the remaining activity at 10 µM in test [1] is 10%; in test [2], -2%; on TDO in A172 cells, 3%; on IDO in A431 cells it was 13%.

As for `N=C(N)SCc1ccccc1CC(=O)NCCc1ccccc1Cl` [Compound 66, 2-(2-((2-chlorophenethyl)amino)-2-oxoethyl)benzyl carbamimidothioate hydrobromide], the remaining activity at 10 µM came to 49% in test [1], 80% in test [2], 74% on TDO in A172 cells and 101% at IDO in A431 cells.

Consider `Clc1ccc(CN2CN=C(SCc3ccccc3CSC3=NCN(Cc4ccc(Cl)cc4)CN3)NC2)cc1` [Compound 41, 1,2-Bis(((5-(4-chlorobenzyl)-1,4,5,6-tetrahydro-1,3,5-triazin-2-yl)thio)methyl)benzene], for which the remaining activity at 10 µM in test [1] was 45%; in test [2] it was 41%; at TDO in A172 cells, 4%; at IDO in A431 cells, 6%.

As to `N=C(N)SCc1ccccc1CC(=O)NCC1CC1` [Compound 71, 2-(2-((Cyclopropylmethyl)amino)-2-oxoethyl)benzyl carbamimidothioate hydrobromide], the remaining activity at 10 µM in test [1] is 67%; in test [2] it was 87%; at TDO in A172 cells, 77%; at IDO in A431 cells, 96%.

As for `N=C(N)SCc1ccccc1CC(=O)NCCc1ccc(Cl)cc1` [Compound 68, 2-(2-((4-Chlorophenethyl)amino)-2-oxoethyl)benzyl carbamimidothioate hydrobromide], the remaining activity at 10 µM in test [1] was 31%; in test [2] it was 82%; at TDO in A172 cells it was 81%; at IDO in A431 cells, 101%.

In the case of `N#Cc1ccc(CNC(=O)c2ccccc2C[Se]C(=N)N)cc1` [Compound 104, 2-((4-Cyanobenzyl)carbamoyl)benzyl carbamimidoselenoate hydrobromide], the remaining activity at 10 µM in test [1] is 81%; in test [2], 78%; at TDO in A172 cells, -1%; at IDO in A431 cells it was -4%.

For `Cc1ccc(/N=C(\N)SCc2cc(Cl)c(Cl)cc2CS/C(N)=N/c2ccc(C)cc2)cc1` [Compound 138, (4,5-Dichloro-1,2-phenylene)bis(methylene) (E,E)-bis(N′-(p-tolyl)carbamimidothioate) dihydrobromide], the remaining activity at 10 µM in test [1] was 14%; in test [2], -1%; at TDO in A172 cells, 0%; on IDO in A431 cells, 8%.

As for `Cc1ccc(C)c(CN2CN=C(SCc3ccccc3CSC3=NCN(Cc4cc(C)ccc4C)CN3)NC2)c1` [Compound 44, 1,2-Bis(((5-(2,5-dimethylbenzyl)-1,4,5,6-tetrahydro-1,3,5-triazin-2-yl)thio)methyl)benzene], the remaining activity at 10 µM in test [1] is 26%; in test [2], 50%; at TDO in A172 cells, 1%; on IDO in A431 cells it was 11%.

Turning to `FC(F)(F)c1cccc(CCN2CN=C(SCc3ccc(Br)cc3CSC3=NCN(CCc4cccc(C(F)(F)F)c4)CN3)NC2)c1` [Compound 149, 6,6′-(((4-Bromo-1,2-phenylene)bis(methylene))bis(sulfanediyl))bis(3-(3-(trifluoromethyl)phenethyl)-1,2,3,4-tetrahydro-1,3,5-triazine)], the remaining activity at 10 µM in test [1] came out at 11%; in test [2] it was 8%; at TDO in A172 cells it was 17%; on IDO in A431 cells, 7%.

Take `N=C(N)SCc1cc(Br)ccc1C(=O)NCc1ccc(F)cc1` [Compound 86, 5-Bromo-2-((4-fluorobenzyl)carbamoyl)benzyl carbamimidothioate hydrobromide]: the remaining activity at 10 µM in test [1] worked out at 46%; in test [2] it was 92%; at TDO in A172 cells, 36%; at IDO in A431 cells it was 109%.

As for `N=C(N)SCc1ccccc1CC(=O)NCC1CCCCC1` [Compound 65, 2-(2-((Cyclohexylmethyl)amino)-2-oxoethyl)benzyl carbamimidothioate hydrobromide], the remaining activity at 10 µM in test [1] turned out to be 76%; in test [2], 89%; at TDO in A172 cells, 94%; at IDO in A431 cells it was 104%.

For the molecule `N=C(N)[Se]Cc1nc2ccccc2nc1C[Se]C(=N)N` [Compound 112, Quinoxaline-2,3-diylbis(methylene) dicarbamimidoselenoate dihydrobromide], the remaining activity at 10 µM in test [1] was 90%; in test [2], 94%; on TDO in A172 cells, 5%; on IDO in A431 cells, -2%.
